According to patent US12410160B2 (Gilead Sciences, Inc., priority 2021, dated 2025):

Tests used:
[1] = target: human KHK-C (Homo sapiens (Human), UniProt P50053); experiment: KHK Biochemical Assay (IC50), ADP-Glo, KHK-C; settings: average of at least two separate assays
Summary of the method: (§1)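 His-tagged enzyme expressed in BL21 (DE3), Ni-NTA purified. Compounds, serially diluted 1:3 in DMSO, pre-incubated 30 min with enzyme in 50 mM Hepes pH 7.4, 140 mM KCl, 5 mM MgCl2, 0.01% Triton-X, then ATP and fructose added; 4 h at room temperature. ADP formation read by ADP-Glo luminescence.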

[2] = target: human KHK-A (Homo sapiens (Human), UniProt P50053); experiment: KHK Biochemical Assay (IC50), ADP-Glo, KHK-A; settings: average of at least two separate assays
Summary of the method: as §1

Chain of human KHK-A (P50053 other isoform, or with tags, fused parts or gaps): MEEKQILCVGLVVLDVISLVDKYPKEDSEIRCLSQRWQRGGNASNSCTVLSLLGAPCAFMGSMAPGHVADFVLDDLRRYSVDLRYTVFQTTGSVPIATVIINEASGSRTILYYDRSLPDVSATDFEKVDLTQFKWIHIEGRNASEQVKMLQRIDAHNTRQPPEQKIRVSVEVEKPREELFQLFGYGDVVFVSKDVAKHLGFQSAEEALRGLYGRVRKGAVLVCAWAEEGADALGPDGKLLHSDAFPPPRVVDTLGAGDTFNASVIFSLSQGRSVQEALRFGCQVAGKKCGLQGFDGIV
Chain of human KHK-C (P50053 whole entry): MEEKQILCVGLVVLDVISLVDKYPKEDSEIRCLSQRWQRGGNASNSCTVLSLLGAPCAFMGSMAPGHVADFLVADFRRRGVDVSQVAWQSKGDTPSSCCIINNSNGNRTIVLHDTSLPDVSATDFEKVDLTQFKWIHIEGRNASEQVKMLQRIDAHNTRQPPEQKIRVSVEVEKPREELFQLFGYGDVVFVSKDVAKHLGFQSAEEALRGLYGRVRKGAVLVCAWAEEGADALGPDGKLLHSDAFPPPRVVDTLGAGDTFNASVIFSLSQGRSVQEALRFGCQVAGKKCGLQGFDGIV

| IC50 ([1]; ADP-Glo) [µM] | IC50 ([2]; ADP-Glo) [µM] | IC50 [1] [µM] | IC50 [2] [µM] | Compound |
| --- | --- | --- | --- | --- |
| – | – | 0.0009 | 0.0051 | C[C@H]1[C@H](O)CN1c1nc(-c2ccc3c(c2)OCCC32NC(=O)NC2=O)c2c(n1)C(F)(F)CC2 (stereo partly drawn) [Example 551, 7-(7,7-difluoro-2-((2S,3R)-3-hydroxy-2-methylazetidin-1-yl)-6,7-dihydro-5H-cyclopenta[d]pyrimidin-4-yl)spiro[chromane-4,4′-imidazolidine]-2′,5′-dione] |
| – | – | 0.0016 | 0.0153 | C[C@H]1[C@H](O)CN1c1nc(-c2ccc3c(c2)OCCC32COC(=O)N2)c2c(n1)C(F)(F)CC2 (stereo partly drawn) [Example 553, 7-(7,7-difluoro-2-((2S,3R)-3-hydroxy-2-methylazetidin-1-yl)-6,7-dihydro-5H-cyclopenta[d]pyrimidin-4-yl)spiro[chromane-4,4′-oxazolidin]-2′-one] |
| – | – | 0.0028 | 0.0292 | C[C@H]1[C@H](O)CN1c1nc(-c2ccc3c(c2)COCC32COC(=O)N2)c2c(n1)C(F)(F)CC2 (stereo partly drawn) [Example 554, 7-(7,7-difluoro-2-((2S,3R)-3-hydroxy-2-methylazetidin-1-yl)-6,7-dihydro-5H-cyclopenta[d]pyrimidin-4-yl)spiro[isochromane-4,4′-oxazolidin]-2′-one] |
| – | – | 0.0086 | 0.0108 | C[C@H]1[C@H](O)CN1c1nc(-c2ccc3c(c2)CC2OC(=O)NC32)c2c(n1)C(F)(F)CC2 (stereo partly drawn) [Example 557, 6-(7,7-difluoro-2-((2S,3R)-3-hydroxy-2-methylazetidin-1-yl)-6,7-dihydro-5H-cyclopenta[d]pyrimidin-4-yl)-3,3a,8,8a-tetrahydro-2H-indeno[1,2-cl]oxazol-2-one] |
| – | – | 0.0002 | 0.0082 | CC1OCC2(COc3cc(-c4nc(N5C[C@@H](O)[C@@H]5C)nc5c4CCC5(F)F)ccc32)NC1=O (stereo partly drawn) [Example 558, 6-(7,7-difluoro-2-((2S,3R)-3-hydroxy-2-methylazetidin-1-yl)-6,7-dihydro-5H-cyclopenta[d]pyrimidin-4-yl)-6′-methyl-2H-spiro[benzofuran-3,3′-morpholin]-5′-one] |
| – | – | 0.0152 | 0.043 | COC[C@H]1CCN1c1nc(-c2ccc(C3(N)COC3)cc2)c2c(n1)C(F)(F)CC2 [Example 569, (R)-3-(4-(7,7-difluoro-2-(2-(methoxymethyl)azetidin-1-yl)-6,7-dihydro-5H-cyclopenta[d]pyrimidin-4-yl)phenyl)oxetan-3-amine] |
| – | – | 0.0109 | 0.025 | C[C@H]1CCCN1c1nc(-c2ccc(C3(N)COC3)cc2)c2c(n1)C(F)(F)CC2 [Example 570, (S)-3-(4-(7,7-difluoro-2-(2-methylpyrrolidin-1-yl)-6,7-dihydro-5H-cyclopenta[d]pyrimidin-4-yl)phenyl)oxetan-3-amine] |
| – | – | 0.0497 | 0.0435 | NC1(c2ccc(-c3nc(N4CCC5CC54)nc4c3CCC4(F)F)cc2)COC1 (centres unmarked) [Example 571, 3-(4-(2-(2-azabicyclo[3.1.0]hexan-2-yl)-7,7-difluoro-6,7-dihydro-5H-cyclopenta[d]pyrimidin-4-yl)phenyl)oxetan-3-amine] |
| – | – | 0.0563 | > 0.1 | NC1(c2ccc(-c3nc(N4CCC4C4CCC4)nc4c3CCC4(F)F)cc2)COC1 (centres unmarked) [Example 572, 3-(4-(2-(2-cyclobutylazetidin-1-yl)-7,7-difluoro-6,7-dihydro-5H-cyclopenta[d]pyrimidin-4-yl)phenyl)oxetan-3-amine] |
| – | – | 0.0094 | 0.0111 | C[C@H]1[C@H](O)CN1c1nc(-c2cc3c(s2)CCC3NS(C)(=O)=O)c2c(n1)C(F)(F)CC2 (some centres unmarked) [Example 574] |
| – | – | 0.0059 | 0.0524 | C[C@@H]1N(c2nc(-c3ccc4c(c3)OC[C@@H]4NS(C)(=O)=O)c3c(n2)C(F)(F)CC3)C[C@@]1(C)O [Example 575, N—((R)-6-(7,7-difluoro-2-((2S,3R)-3-hydroxy-2,3-dimethylazetidin-1-yl)-6,7-dihydro-5H-cyclopenta[d]pyrimidin-4-yl)-2,3-dihydrobenzofuran-3-yl)methanesulfonamide] |
| – | – | 0.0068 | > 0.1 | C[C@@H]1N(c2nc(-c3ccc4c(c3)CCC43COC(=O)N3)c3c(n2)C(F)(F)CC3)C[C@@]1(C)O (stereo partly drawn) [Example 576, 5-(7,7-difluoro-2-((2S,3R)-3-hydroxy-2,3-dimethylazetidin-1-yl)-6,7-dihydro-5H-cyclopenta[d]pyrimidin-4-yl)-2,3-dihydrospiro[indene-1,4′-oxazolidin]-2′-one] |
| – | – | 0.0006 | 0.0021 | CS(=O)(=O)N[C@H]1COc2cc(-c3nc(N4CC[C@@H]4C(F)(F)F)nc4c3CCC4(F)F)ccc21 [Example 577, N—((R)-6-(7,7-difluoro-2-((R)-2-(trifluoromethyl)azetidin-1-yl)-6,7-dihydro-5H-cyclopenta[d]pyrimidin-4-yl)-2,3-dihydrobenzofuran-3-yl)methanesulfonamide] |
| – | – | 0.0061 | 0.0225 | C[C@H]1[C@H](O)CN1c1nc(-c2ccc3c(c2)COC[C@H]3NS(C)(=O)=O)c2c(n1)C(F)(F)CC2 [Example 578, N—((S)-7-(7,7-difluoro-2-((2S,3R)-3-hydroxy-2-methylazetidin-1-yl)-6,7-dihydro-5H-cyclopenta[d]pyrimidin-4-yl)isochroman-4-yl)methanesulfonamide] |
| – | – | 0.0027 | 0.025 | C[C@H]1[C@H](O)CN1c1nc(-c2ccc3c(c2)COC[C@@H]3NS(=O)(=O)C2CC2)c2c(n1)C(F)(F)CC2 [Example 579, N—((R)-7-(7,7-difluoro-2-((2S,3R)-3-hydroxy-2-methylazetidin-1-yl)-6,7-dihydro-5H-cyclopenta[d]pyrimidin-4-yl)isochroman-4-yl)cyclopropanesulfonamide] |

Second part, the molecule before the results:

| Compound | IC50 ([1]; ADP-Glo) [µM] | IC50 ([2]; ADP-Glo) [µM] | IC50 [1] [µM] | IC50 [2] [µM] |
| --- | --- | --- | --- | --- |
| C[C@H]1CCN1c1nc2c(c(-c3ccc(S(C)(=O)=O)cc3)n1)CCC2 [Example 354, 2-[(2S)-2-methylazetidin-1-yl]-4-(4-methylsulfonylphenyl)-6,7-dihydro-5H-cyclopenta[d]pyrimidine] | 0.138 | 0.177 | – | – |
| Cc1cc(-c2nc(N3CC[C@@H]3C)nc3c2CCC3)ccc1C(=O)NCCO [Example 356, N-(2-hydroxyethyl)-2-methyl-4-[2-[(2S)-2-methylazetidin-1-yl]-6,7-dihydro-5H-cyclopenta[d]pyrimidin-4-yl]benzamide] | 0.0799 | 0.0706 | – | – |
| Cc1cc(-c2nc(N3CC[C@@H]3C)nc3c2CCC3)ccc1C(=O)N(C)C [Example 357, N,N,2-trimethyl-4-[2-[(2S)-2-methylazetidin-1-yl]-6,7-dihydro-5H-cyclopenta[d]pyrimidin-4-yl]benzamide] | 0.162 | 0.122 | – | – |
| C[C@H]1CCN1c1nc2c(c(-c3ccc(CNC(=O)c4ccccc4)cc3)n1)CCC2 [Example 360, N-[[4-[2-[(2S)-2-methylazetidin-1-yl]-6,7-dihydro-5H-cyclopenta[d]pyrimidin-4-yl]phenyl]methyl]benzamide] | 0.253 | 0.169 | – | – |
| C[C@H]1[C@H](O)CN1c1nc2c(c(-c3ccc(CN)s3)n1)CCC2 [Example 363, (2S,3R)-1-[4-[5-(aminomethyl)-2-thienyl]-6,7-dihydro-5H-cyclopenta[d]pyrimidin-2-yl]-2-methyl-azetidin-3-ol] | 0.0291 | 0.0258 | – | – |
| C[C@H]1CCN1c1nc2c(c(-c3ccc(CN4CCOCC4)cc3)n1)CCC2 [Example 367, 4-[[4-[2-[(2S)-2-methylazetidin-1-yl]-6,7-dihydro-5H-cyclopenta[d]pyrimidin-4-yl]phenyl]methyl]morpholine] | 0.176 | 0.224 | – | – |
| C[C@H]1CCN1c1nc2c(c(-c3ccc(CN(C)C)cc3)n1)CCC2 [Example 368, N,N-dimethyl-1-[4-[2-[(2S)-2-methylazetidin-1-yl]-6,7-dihydro-5H-cyclopenta[d]pyrimidin-4-yl]phenyl]methanamine] | 0.02 | 0.0383 | – | – |
| C[C@H]1CCN1c1nc2c(c(-c3ccc(C(C)(C)O)cc3)n1)CCC2 [Example 369, 2-[4-[2-[(2S)-2-methylazetidin-1-yl]-6,7-dihydro-5H-cyclopenta[d]pyrimidin-4-yl]phenyl]propan-2-ol] | 0.0871 | 0.186 | – | – |
| C[C@H]1CCN1c1nc2c(c(-c3cccc(C(N)=O)c3)n1)C1CC1C2 (stereo partly drawn) [Example 445, 3-(2-((S)-2-methylazetidin-1-yl)-4b,5,5a,6-tetrahydrocyclopropa[3,4]cyclopenta[1,2-d]pyrimidin-4-yl)benzamide] | – | – | 0.305 | 0.131 |
| C[C@H]1CCN1c1nc2c(c(-c3ccc4c(c3)[nH]c(=O)n4C)n1)CCC2 [Example 452, 3-methyl-6-[2-[(2S)-2-methylazetidin-1-yl]-6,7-dihydro-5H-cyclopenta[d]pyrimidin-4-yl]-1H-benzimidazol-2-one] | – | – | 0.0683 | 0.103 |
| C[C@H]1[C@H](O)CN1c1nc(-c2ccc3c(c2)OCC32COCC(=O)N2)c2c(n1)C(F)(F)CC2 (stereo partly drawn) [Example 497, 6-(7,7-difluoro-2-((2S,3R)-3-hydroxy-2-methylazetidin-1-yl)-6,7-dihydro-5H-cyclopenta[d]pyrimidin-4-yl)-2H-spiro[benzofuran-3,3′-morpholin]-5′-one] | – | – | 0.0001 | 0.0022 |
| C[C@H]1[C@H](O)CN1c1nc(-c2ccc(OC3CC3)c(S(C)(=N)=O)c2)c2c(n1)C(F)(F)CC2 (stereo partly drawn) [Example 541, (2-cyclopropoxy-5-(7,7-difluoro-2-((2S,3R)-3-hydroxy-2-methylazetidin-1-yl)-6,7-dihydro-5H-cyclopenta[d]pyrimidin-4-yl)phenyl)(imino)(methyl)-λ^6-sulfanone] | – | – | 0.0013 | 0.0009 |
| C[C@H]1[C@H](O)CN1c1nc(-c2ccc3c(c2)CCC32COCC(=O)N2)c2c(n1)C(F)(F)CC2 (stereo partly drawn) [Example 548, 5-(7,7-difluoro-2-((2S,3R)-3-hydroxy-2-methylazetidin-1-yl)-6,7-dihydro-5H-cyclopenta[d]pyrimidin-4-yl)-2,3-dihydrospiro[indene-1,3′-morpholin]-5′-one] | – | – | 0.0001 | 0.0073 |
